Experiment: Preventive effect against pulmonary embolism formation (no method given)
Settings: stated as demonstrated by the present inventors, no data given

dextran
preventive effect against pulmonary embolism formation (in words): demonstrated to have a preventive effect against pulmonary embolism formation
